Reference: EPA's ToxValDB 9.5
Several values for one entry are separate records, joined by “and”; a condition that tells them apart may be missing. Equal values may be shown once.

Legend:
[1] = test system: Rattus norvegicus; conditions: subchronic; oral; diet; M; Fischer 344; Body Weight Changes: decrease + Blood Chemistry: Alp increase, Bile acid increase, ALT increase, SDH increase + Absolute Organ Weight: Liver…
[2] = test system: Rattus norvegicus; conditions: short-term, duration: 28 days, oral, gavage, Sprague-Dawley

Cc1cccc(Nc2cc(Cl)nc(SCC(=O)O)n2)c1C [[4-Chloro-6-(2,3-xylidino)-2-pyrimidinylthio]acetic acid]
12.5 mg/kg-day: LOEL ([2]; F, Clinical chemistry_Total protein)
12.5 mg/kg-day and 6.25 mg/kg-day: LOEL ([2]; F, Clinical chemistry_Total triiodothyronine)
< 0.48 mg/kg-day: NOEL [1]
6.25 mg/kg-day: LOEL ([2]; F, Clinical chemistry_Albumin) | LOEL ([2]; F, Clinical chemistry_Albumin/globulin ratio) | LOEL ([2]; F, Clinical chemistry_Alkaline phosphatase) | LOEL ([2]; F, Clinical chemistry_Globulin) | LOEL ([2]; F, Clinical chemistry_Sorbitol dehydrogenase) | LOEL ([2]; F, Clinical chemistry_Testosterone) | LOEL ([2]; F, Clinical chemistry_Thyroid stimulating hormone) | LOEL ([2]; F, Gene expression_Acox1) | LOEL ([2]; F, Gene expression_Cyp2b1) | LOEL ([2]; F, Gene expression_Cyp2b2) | LOEL ([2]; F, Gene expression_Cyp4a1) | LOEL ([2]; F, Nonneoplastic effects_Liver - Hepatocyte, cytoplasmic alteration) | LOEL ([2]; F, Organ weights_Liver - Absolute) | LOEL ([2]; F, Organ weights_Liver - Relative) | LOEL ([2]; F, Organ weights_R. kidney - Absolute) | LOEL ([2]; F, Organ weights_R. kidney - Relative) | LOEL ([2]; F, Reproductive toxicity_Altered estrous cyclicity) | LOEL ([2]; M, Clinical chemistry_Alanine aminotransferase) | LOEL ([2]; M, Clinical chemistry_Albumin) | LOEL ([2]; M, Clinical chemistry_Albumin/globulin ratio) | LOEL ([2]; M, Clinical chemistry_Alkaline phosphatase) | LOEL ([2]; M, Clinical chemistry_Cholesterol)
25 mg/kg-day: LOEL ([2]; F, Clinical chemistry_Alanine aminotransferase) | LOEL ([2]; F, Clinical chemistry_Aspartate aminotransferase) | NOEL ([2]; F, Clinical chemistry_Cholesterol) | NOEL ([2]; F, Clinical chemistry_Creatinine kinase) | NOEL ([2]; F, Clinical chemistry_Direct bilirubin) | NOEL ([2]; F, Clinical chemistry_Free thyroxine) | NOEL ([2]; F, Clinical chemistry_Indirect bilirubin) | NOEL ([2]; F, Clinical chemistry_T bilirubin) | NOEL ([2]; F, Clinical chemistry_Total bile acids) | NOEL ([2]; F, Clinical chemistry_Total bilirubin) | NOEL ([2]; F, Clinical chemistry_Total thyroxine) | NOEL ([2]; F, Clinical chemistry_Triglycerides) | NOEL ([2]; F, Hematology_Erythrocytes) | NOEL ([2]; F, Hematology_Hematocrit) | NOEL ([2]; F, Hematology_Hemoglobin) | NOEL ([2]; F, Hematology_Leukocytes) | NOEL ([2]; F, Hematology_Mean corpuscular hemoglobin concentration) | NOEL ([2]; F, Hematology_Mean corpuscular volume) | NOEL ([2]; F, Hematology_Platelets) | NOEL ([2]; F, Hematology_Reticulocytes) | NOEL ([2]; F, Hematology_S. neutrophils) | NOEL ([2]; F, Nonneoplastic effects_Bone marrow - Hypocellularity) | NOEL ([2]; F, Nonneoplastic effects_Kidney - Papilla, necrosis) | NOEL ([2]; F, Nonneoplastic effects_Liver - Hepatocyte, Necrosis) | LOEL ([2]; F, Nonneoplastic effects_Liver - Hepatocyte, hypertrophy) | NOEL ([2]; F, Nonneoplastic effects_Liver - Hepatocyte, vacuolization cytoplasmic) | NOEL ([2]; F, Nonneoplastic effects_Liver - Necrosis) | NOEL ([2]; F, Nonneoplastic effects_Nose - Olfactory epithelium, degeneration) | NOEL ([2]; F, Nonneoplastic effects_Nose - Olfactory epithelium, hyperplasia) | NOEL ([2]; F, Nonneoplastic effects_Nose - Olfactory epithelium, inflammation, suppurative) | NOEL ([2]; F, Nonneoplastic effects_Nose - Olfactory epithelium, necrosis) | NOEL ([2]; F, Nonneoplastic effects_Spleen - Extramedullary hematopoiesis, decreased) | NOEL ([2]; F, Nonneoplastic effects_Stomach, forestomach - Epithelium, hyperplasia) | NOEL ([2]; F, Nonneoplastic effects_Thymus - Atrophy) | NOEL ([2]; F, Organ weights_Heart - Absolute) | NOEL ([2]; F, Organ weights_Heart - Relative) | NOEL ([2]; F, Organ weights_Lung - Absolute) | NOEL ([2]; F, Organ weights_Lung - Relative) | NOEL ([2]; F, Organ weights_R. adrenal gland - Absolute) | NOEL ([2]; F, Organ weights_R. adrenal gland - Relative) | NOEL ([2]; F, Organ weights_Spleen - Absolute) | NOEL ([2]; F, Organ weights_Spleen - Relative) | NOEL ([2]; F, Organ weights_Thymus - Absolute) | NOEL ([2]; F, Organ weights_Thymus - Relative) | NOEL ([2]; F, Organ weights_Thyroid gland - Absolute) | NOEL ([2]; F, Organ weights_Thyroid gland - Relative) | NOEL ([2]; F, Survival rates) | NOEL ([2]; F, body weight) | LOEL ([2]; M, Clinical chemistry_Aspartate aminotransferase) | NOEL ([2]; M, Clinical chemistry_Creatinine kinase) | LOEL ([2]; M, Clinical chemistry_Direct bilirubin)
